# Test results as given in paper PMC6920997, “Total Phenolic and Flavonoid Content and Biological Activities of Extracts and Isolated Compounds of Cytisus villosus Pourr” (Biomolecules, 2019).
# Key:
# iNOS = assay: Inhibition of iNOS (intracellular NO production) in RAW 264.7 macrophages; assay type: cell-based; conditions: Mus musculus, RAW264.7; RAW 264.7 cells; NA = no activity at 25 µg/mL (pure compounds) or 100 µg/mL (extracts)
# Description: The extracts and isolated compounds of C. villosus were evaluated in terms of their interaction with cellular targets related to inflammation and metabolic disorders, such as iNOS and NF-κB. The inhibition of intracellular NO production as a result of iNOS activity was assayed in mouse macrophages (RAW 264.7cells). Cytotoxicity of test samples to macrophages was also determined in parallel to check if the inhibition of iNOS was due to cytotoxic effects.
# NF-κB = assay: Reporter gene assay for the inhibition of NF-κB; assay type: cell-based; conditions: PMA-treated cells, luciferase reporter; NA = no activity at 25 µg/mL (pure compounds) or 100 µg/mL (extracts); read-out: Inhibition of NF-kB IC50
# Description: Reporter gene assay for the inhibition of NF-κB Activity was performed as described earlier. In brief, cells transfected with NF-κB luciferase plasmid construct were plated in 96-well plates at a density of 1.25 × 10^5 cells/well. After 24 h, cells were treated with the test compounds and, after incubating for 30 min, phorbol 12-myristate 13-acetate (PMA) (Sigma-Aldrich, Burlington MA, USA) (70 ng/mL) was added and further incubated for 6−8 h. Luciferase activity was measured as described above. Percent decrease in luciferase activity was calculated relative to the vehicle control. Parthenolide (Sigma-Aldrich, Burlington MA, USA) was used as a positive control.
# Candida albicans = assay: Antifungal assay C. albicans; assay type: cell-based; conditions: pure compounds
# Description: (§1) Extracts and pure compounds were tested for their antimicrobial activity against Staphylococcus aureus, methicillin-resistant S. aureus (MRSA), Escherichia coli, Pseudomonas aeruginosa, and Mycobacterium intracellulare. The antifungal activities were evaluated against a panel of pathogenic fungi, including Candida albicans, C. glabrata, C. krusei, Aspergillus fumigatus, and Cryptococcus neoformans, associated with opportunistic infections.
# Cryptococcus neoformans = assay: Antifungal assay C. neoformans; assay type: cell-based; conditions: pure compounds
# Description: as §1
# Staphylococcus aureus = assay: Antibacterial assay S. aureus; assay type: cell-based; conditions: pure compounds
# Description: as §1
# Escherichia coli = assay: Antibacterial assay E. coli; assay type: cell-based; conditions: pure compounds
# Description: as §1
# Pseudomonas aeruginosa = assay: Antibacterial assay P. aeruginosa; assay type: cell-based; conditions: pure compounds
# Description: as §1
# P. falciparum (D6 Clone) = assay: Antimalarial assay, chloroquine-sensitive D6 clone; assay type: cell-based, Plasmodium falciparum; conditions: selectivity index = IC50 for cytotoxicity/IC50 for antimalarial activity
# Description: (§2) The in vitro antileishmanial and antitrypanosomal assays were done on cell cultures of L. donovani promastigotes, axenic amastigotes, THP1-amastigotes, and Trypanosoma brucei trypomastigotes by Alamar Blue assays. The conditions for seeding the THP1 cells, exposure to the test samples, and evaluation of cytotoxicity were the same as described in parasite-rescue and transformation assay. IC50 and IC90 values were computed from the dose response curves using XLfit software (XLfit 5.3.1, IDBS analytical, Boston MA, USA). DFMO (difluoromethylornithine) was used as the positive control. The antiprotozoal activity of C. villosus extracts and isolated compounds were evaluated in vitro against L. donovani promastigotes, axenic amastigotes, and intracellular amastigotes in THP1 cells. The extracts and some isolated compounds were also evaluated against T. brucei trypomastigote forms. All the extracts and compounds were simultaneously tested against THP1 cell for determination of general cytotoxicity. The extracts and isolated compounds were also evaluated for their antimalarial activity against chloroquine-sensitive (D6, Sierra Leone) and chloroquine-resistant strains (W2, Indochina) strains of Plasmodium falciparum. Furthermore, they were tested for cytotoxicity against the Vero cell line.
# P. falciparum (W2 Clone) = assay: Antimalarial assay, chloroquine-resistant W2 clone; assay type: cell-based, Plasmodium falciparum; conditions: selectivity index = IC50 for cytotoxicity/IC50 for antimalarial activity
# Description: as §2
# [1] = Cytotoxicity against Vero cell line (antimalarial counterscreen); assay type: cell-based; conditions: African green monkey
# Description: as §2
# δ opioid receptor = δ opioid receptor (Homo sapiens, UniProt P41143); assay: Radioligand displacement δ opioid receptor; assay type: binding
# κ opioid receptor = κ opioid receptor (Homo sapiens, UniProt P41145); assay type: binding
# μ opioid receptor = μ opioid receptor (Homo sapiens, UniProt P35372); assay type: binding
# Sequence of μ opioid receptor (P35372 whole entry): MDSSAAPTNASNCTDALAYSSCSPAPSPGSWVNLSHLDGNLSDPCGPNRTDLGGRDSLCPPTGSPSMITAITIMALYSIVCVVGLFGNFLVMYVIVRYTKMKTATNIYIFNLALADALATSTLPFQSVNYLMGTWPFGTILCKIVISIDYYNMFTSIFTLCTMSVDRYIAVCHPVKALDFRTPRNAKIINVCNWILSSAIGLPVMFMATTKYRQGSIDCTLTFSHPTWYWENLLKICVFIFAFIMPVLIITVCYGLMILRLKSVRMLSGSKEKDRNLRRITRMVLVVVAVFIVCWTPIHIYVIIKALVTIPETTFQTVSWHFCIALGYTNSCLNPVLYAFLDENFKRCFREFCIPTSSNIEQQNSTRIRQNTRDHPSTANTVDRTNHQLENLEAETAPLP
# Sequence of δ opioid receptor (P41143 whole entry): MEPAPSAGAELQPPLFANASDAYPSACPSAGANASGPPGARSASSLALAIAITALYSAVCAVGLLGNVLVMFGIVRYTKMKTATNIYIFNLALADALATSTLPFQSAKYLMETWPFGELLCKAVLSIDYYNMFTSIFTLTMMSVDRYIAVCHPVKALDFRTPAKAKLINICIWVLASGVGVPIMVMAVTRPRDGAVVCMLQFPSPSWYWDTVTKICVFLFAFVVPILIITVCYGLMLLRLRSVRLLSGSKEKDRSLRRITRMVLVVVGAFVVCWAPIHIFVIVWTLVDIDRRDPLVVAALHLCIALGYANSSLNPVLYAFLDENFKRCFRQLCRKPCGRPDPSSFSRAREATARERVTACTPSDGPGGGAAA
# Sequence of κ opioid receptor (P41145 whole entry): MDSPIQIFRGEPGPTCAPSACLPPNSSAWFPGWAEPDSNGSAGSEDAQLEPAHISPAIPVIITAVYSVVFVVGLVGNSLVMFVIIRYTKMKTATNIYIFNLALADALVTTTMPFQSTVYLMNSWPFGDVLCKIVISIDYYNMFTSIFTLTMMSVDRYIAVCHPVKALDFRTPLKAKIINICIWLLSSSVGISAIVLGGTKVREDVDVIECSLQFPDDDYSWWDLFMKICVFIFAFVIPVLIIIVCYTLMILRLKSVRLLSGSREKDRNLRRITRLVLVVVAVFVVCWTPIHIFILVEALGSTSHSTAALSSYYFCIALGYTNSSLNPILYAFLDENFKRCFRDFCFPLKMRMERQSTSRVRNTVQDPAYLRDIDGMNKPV
structure (smiles),measurement,setting,value
"O=c1cc(-c2ccccc2)oc2cc(O)cc(O)c12 [Compound 2, chrysin]",IC50,iNOS,> 25 µg/mL
same,IC50,NF-κB,38 µg/mL
same,IC50,Candida albicans,> 20 µg/mL
same,IC50,Cryptococcus neoformans,> 20 µg/mL
same,IC50,Staphylococcus aureus,> 20 µg/mL
same,IC50,Escherichia coli,> 20 µg/mL
same,IC50,Pseudomonas aeruginosa,> 20 µg/mL
same,"SI (first SI column of Table 7, presumably D6)",P. falciparum (D6 Clone),1
same,"SI (second SI column of Table 7, presumably W2)",P. falciparum (W2 Clone),1
same,IC50,[1],> 4.76 µg/mL
same,Opioid Receptors (%) δ radioligand displacement,δ opioid receptor,8.7%
same,Opioid Receptors (%) κ radioligand displacement,κ opioid receptor,12.8%
same,Opioid Receptors (%) μ radioligand displacement,μ opioid receptor,12.2%
